In patent US12214036B2, “Combination therapy comprising AXL/MER and PD-1/PD-L1 inhibitors” (Incyte Corporation, priority 2020, dated 2025):

Biological target: T1, AXL (Homo sapiens, UniProt P30530)
T1 construct: tumor cell lines expressing high levels of endogenous AXL; endogenous in cells; host or cells: H1299
T1 sequence (P30530 26-894): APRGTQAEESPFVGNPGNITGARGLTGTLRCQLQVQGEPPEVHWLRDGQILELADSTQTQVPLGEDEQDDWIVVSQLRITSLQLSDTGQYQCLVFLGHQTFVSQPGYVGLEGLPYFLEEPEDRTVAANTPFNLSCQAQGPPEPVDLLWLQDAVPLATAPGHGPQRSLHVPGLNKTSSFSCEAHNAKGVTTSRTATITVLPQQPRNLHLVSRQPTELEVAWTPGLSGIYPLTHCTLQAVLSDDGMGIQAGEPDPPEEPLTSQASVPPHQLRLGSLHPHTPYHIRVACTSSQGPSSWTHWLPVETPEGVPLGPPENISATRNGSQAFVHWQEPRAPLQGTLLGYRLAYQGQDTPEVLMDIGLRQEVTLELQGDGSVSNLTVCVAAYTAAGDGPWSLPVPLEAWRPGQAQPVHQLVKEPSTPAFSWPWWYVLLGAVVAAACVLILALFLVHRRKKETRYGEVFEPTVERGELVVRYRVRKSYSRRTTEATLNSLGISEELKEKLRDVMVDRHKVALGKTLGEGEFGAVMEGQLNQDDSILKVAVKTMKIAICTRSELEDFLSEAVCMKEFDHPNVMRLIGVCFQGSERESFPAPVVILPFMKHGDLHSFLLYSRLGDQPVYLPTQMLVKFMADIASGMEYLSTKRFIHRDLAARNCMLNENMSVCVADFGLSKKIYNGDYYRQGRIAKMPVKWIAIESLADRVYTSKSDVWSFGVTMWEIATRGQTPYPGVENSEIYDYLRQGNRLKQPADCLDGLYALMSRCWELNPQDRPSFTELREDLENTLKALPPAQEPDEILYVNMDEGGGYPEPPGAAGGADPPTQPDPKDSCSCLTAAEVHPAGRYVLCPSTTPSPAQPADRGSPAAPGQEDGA
Test: pAXL inhibition assay in H1299 cells (ELISA)
Format: cell-based
Settings: rhGAS6 stimulation, N=19 (FIG. 2)
Protocol: The ability of Compound 1 to modulate AXL activity was evaluated in tumor cell lines expressing high levels of endogenous AXL.
H1299 cells were plated (30,000 cells/well) in 96-well tissue-culture plates (Costar, Corning Incorporated, Corning, N.Y.) and incubated overnight at 37° C. with 5% CO2. Compound 1 at an appropriate concentration was added and incubated for 1 hour at 37° C. with 5% CO2. rhGAS6 (R&D Systems, Minneapolis, Minn.; #885-GSB) was added at 1 μg/mL to each well, and plates were incubated at 37° C. with 5% CO2 for 15 minutes. Cells were harvested and lysed in 110 μL of ice-cold lysis buffer (Cell Signaling Technology, Danvers, Mass.; #9803) with protease and phosphatase inhibitors (ThermoFisher Scientific; #78446) for 1 hour on ice and stored at −80° C. for ELISA. ELISA plates were prepared by incubating Greiner lumitrac high-binding plates with 8 μg/mL of anti-AXL antibody (R&D Systems; MAB154) overnight at room temperature. The plates were washed and blocked with phosphate buffered saline (PBS) with 0.1% BSA. Cell lysates were loaded onto ELISA plates and incubated 2 hours at room temperature. […] The plates were gently shaken for 15 minutes at room temperature and read on the PheraStar (BMG Labtech). […]

Compound `CC(C)C(=O)N1CCC(c2cc(-c3ccc(NC(=O)c4cn(C(C)C)c(=O)n(-c5ccccn5)c4=O)cc3)c3c(N)ncnn23)CC1` [Compound 1, N-(4-(4-Amino-7-(1-isobutyrylpiperidin-4-yl)pyrrolo[1,2-f][1,2,4]triazin-5-yl)phenyl)-1-isopropyl-2,4-dioxo-3-(pyridin-2-yl)-1,2,3,4-tetrahydropyrimidine-5-carboxamide] has an IC50 of 1.8 ± 0.63 nM.
